Reference: patent US11000033B2, “Ketone or oxime compound, and herbicide” (NISSAN CHEMICAL CORPORATION, priority 2014, dated 2021)

Key:
Type in all cases: in vivo
[1] = test system: directly sowed rice plant; test: Test Example 3: effect on crop by foliage application, Wagner pot (symbol b)
Outline: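 Alluvial soil in a 1/10000-are Wagner pot was flooded to a water depth of 0.1–0.5 cm. Echinochloa crus-galli var. crus-galli, Leptochloa chinensis, Cyperus difformis and rice were sown into it and grown in a greenhouse at 25–30 °C.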

corn = test: Test Example 4: effect on crop by soil treatment (symbol c)
Outline: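 Seeds were sown in spots on sterilized diluvial soil in a plastic box and covered with about 1.5 cm of soil. Plants were then grown in a greenhouse at 25° C. to 30° C.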

beet [2] = test: Test Example 5: effect on crop by foliage application, plastic box (symbol f); settings: 3 weeks after application
Outline: (§1)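 Soil: sterilized diluvial. Container: plastic box, 21 × 13 cm, 7 cm deep. Sowing: spot-like, ~1.5 cm cover. Growth: greenhouse, 25° C. to 30° C.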

rice plant = test: Test Example 5: effect on crop by foliage application, plastic box (symbol b); settings: 3 weeks after application
Outline: as §1

Alopecurus myosuroides = test: Test Example 4: herbicidal effect by soil treatment (symbol J)
Outline: (§2)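 Seeds were sown in sterilized diluvial soil, covered with about 1.5 cm of soil, and the soil surface was sprayed with a water-diluted emulsion of the compound at a predetermined rate. Plants grew in a greenhouse at 25° C. to 30° C.; effects were scored visually 3 weeks after application.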

Avena fatua = test: Test Example 5: herbicidal effect by foliage application, plastic box (symbol I); settings: 3 weeks after application
Outline: (§3)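 Seeds were sown in sterilized diluvial soil, covered with about 1.5 cm of soil and grown 14 days in a greenhouse at 25° C. to 30° C. An emulsifiable formulation diluted in water to a set rate was sprayed over foliage, and injury was scored 3 weeks later.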

Digitaria ciliaris [3] = test: Test Example 4: herbicidal effect by soil treatment (symbol F)
Outline: as §2

soybean = test: Test Example 4: effect on crop by soil treatment (symbol d)
Outline: (§4)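 Grown at 25° C. to 30° C. in a greenhouse, the crops came from seed sown spot-wise in sterilized diluvial soil under roughly 1.5 cm of covering soil.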

Lolium multiflorum Lam. = test: Test Example 4: herbicidal effect by soil treatment (symbol K)
Outline: as §2

Setaria viridis = test: Test Example 5: herbicidal effect by foliage application, plastic box (symbol G); settings: 3 weeks after application
Outline: as §3

Stellaria media [4] = test: Test Example 5: herbicidal effect by foliage application, plastic box (symbol P); settings: 3 weeks after application
Outline: as §3

Chenopodium album = test: Test Example 5: herbicidal effect by foliage application, plastic box (symbol O); settings: 320 g/ha, 3 weeks after application
Outline: as §3

Veronica persica [5] = test: Test Example 5: herbicidal effect by foliage application, plastic box (symbol R); settings: 3 weeks after application
Outline: as §3

wheat = test: Test Example 5: effect on crop by foliage application, plastic box (symbol e); settings: 3 weeks after application
Outline: as §1

Digitaria ciliaris [6] = test: Test Example 5: herbicidal effect by foliage application, plastic box (symbol F); settings: 3 weeks after application
Outline: as §3

[7] = test system: Echinochloa crus-galli var. crus-galli; test: Test Example 4: herbicidal effect by soil treatment (symbol H)
Outline: as §2

Veronica persica [8] = test: Test Example 4: herbicidal effect by soil treatment (symbol R)
Outline: as §2

Abutilon theophrasti = test: Test Example 5: herbicidal effect by foliage application, plastic box (symbol M); settings: 3 weeks after application
Outline: as §3

Galium spurium = test: Test Example 4: herbicidal effect by soil treatment (symbol Q)
Outline: as §2

Stellaria media [9] = test: Test Example 4: herbicidal effect by soil treatment (symbol P)
Outline: as §2

beet [10] = test: Test Example 4: effect on crop by soil treatment (symbol f)
Outline: as §4

Apera spica-venti = test: Test Example 5: herbicidal effect by foliage application, plastic box (symbol L); settings: 3 weeks after application
Outline: as §3

rice = test: Test Example 4: effect on crop by soil treatment (symbol b)
Outline: as §4

rapeseed = test: Test Example 4: effect on crop by soil treatment (symbol g)
Outline: as §4

[11] = application herbicide amount 320 g/ha

CON=C(CC1CC(OC(=O)C(C)(C)C)=C(c2c(C)cc(C)cc2OC)C1=O)C1CC1 (mixture of isomers) [13-006]
b (directly sowed rice plant) effect on crop grade ([1]; application herbicide amount 320 g/ha, Table 24): 5 (Herbicidal ratio of 90% or more (almost completely withered))
c: corn, effect on crop grade (corn; [11]): 1 (Herbicidal ratio of 5% or higher and lower than 20%)
f: beet, effect on crop grade (beet [2]; 320 g/ha): 3 (Herbicidal ratio of 40% or higher and lower than 70%)
b: directly sowed rice plant, effect on crop grade (rice plant; 320 g/ha): 5 (Herbicidal ratio of 90% or more (almost completely withered))
J: Alopecurus myosuroides, herbicidal effect grade (Alopecurus myosuroides; [11]): 5 (Herbicidal ratio of 90% or more (almost completely withered))
I: Avena fatua, herbicidal effect grade (Avena fatua; 320 g/ha): 5 (Herbicidal ratio of 90% or more (almost completely withered))
F: Digitaria ciliaris, herbicidal effect grade (Digitaria ciliaris [3]; [11]): 5 (Herbicidal ratio of 90% or more (almost completely withered))
d: soybean, effect on crop grade (soybean; [11]): 0 (Herbicidal ratio of 5% or lower (almost no effect))
K: Lolium multiflorum Lam., herbicidal effect grade (Lolium multiflorum Lam.; [11]): 5 (Herbicidal ratio of 90% or more (almost completely withered))
G: Setaria viridis, herbicidal effect grade (Setaria viridis; 320 g/ha): 5 (Herbicidal ratio of 90% or more (almost completely withered))
P: Stellaria media, herbicidal effect grade (Stellaria media [4]; 320 g/ha): 3 (Herbicidal ratio of 40% or higher and lower than 70%)
O: Chenopodium album, herbicidal effect grade (Chenopodium album): 2 (Herbicidal ratio of 20% or higher and lower than 40%)
R: Veronica persica, herbicidal effect grade (Veronica persica [5]; 320 g/ha): 2 (Herbicidal ratio of 20% or higher and lower than 40%)
e: wheat, effect on crop grade (wheat; 320 g/ha): 5 (Herbicidal ratio of 90% or more (almost completely withered))
F: Digitaria ciliaris, herbicidal effect grade (Digitaria ciliaris [6]; 320 g/ha): 5 (Herbicidal ratio of 90% or more (almost completely withered))
H: Echinochloa crus-galli var. crus-galli, herbicidal effect grade [7, 11]: 5 (Herbicidal ratio of 90% or more (almost completely withered))
R: Veronica persica, herbicidal effect grade (Veronica persica [8]; [11]): 0 (Herbicidal ratio of 5% or lower (almost no effect))
M: Abutilon theophrasti, herbicidal effect grade (Abutilon theophrasti; 320 g/ha): 4 (Herbicidal ratio of 70% or higher and lower than 90%)
Q: Galium spurium, herbicidal effect grade (Galium spurium; [11]): 0 (Herbicidal ratio of 5% or lower (almost no effect))
P: Stellaria media, herbicidal effect grade (Stellaria media [9]; [11]): 0 (Herbicidal ratio of 5% or lower (almost no effect))
f: beet, effect on crop grade (beet [10]; [11]): 0 (Herbicidal ratio of 5% or lower (almost no effect))
L: Apera spica-venti, herbicidal effect grade (Apera spica-venti; 320 g/ha): 5 (Herbicidal ratio of 90% or more (almost completely withered))
b: directly sowed rice plant, effect on crop grade (rice; [11]): 5 (Herbicidal ratio of 90% or more (almost completely withered))
g: rapeseed, effect on crop grade (rapeseed; [11]): 3 (Herbicidal ratio of 40% or higher and lower than 70%)

CON=C(C)CC1CC(OC(=O)C2CCCO2)=C(c2c(C)cc(C)cc2C)C1=O (stereo not drawn) [1-076]
effect on crop b (directly sowed rice plant), grade 0-5 ([1]; application herbicide amount 192 g/ha): 5 (Herbicidal ratio of 90% or more (almost completely withered))
c: corn, effect grade on crop (corn; 192 g/ha): 2 (Herbicidal ratio of 20% or higher and lower than 40%)
f: beet, effect on crop (criteria 0-5) (beet [2]; 192 g/ha): 0 (Herbicidal ratio of 5% or lower (almost no effect))
b: directly sowed rice plant, effect on crop (criteria 0-5) (rice plant; 192 g/ha): 5 (Herbicidal ratio of 90% or more (almost completely withered))
J: Alopecurus myosuroides, herbicidal effect grade (Alopecurus myosuroides; 192 g/ha): 4 (Herbicidal ratio of 70% or higher and lower than 90%)
I: Avena fatua, herbicidal effect (criteria 0-5) (Avena fatua; 192 g/ha): 5 (Herbicidal ratio of 90% or more (almost completely withered))
F: Digitaria ciliaris, herbicidal effect grade (Digitaria ciliaris [3]; 192 g/ha): 5 (Herbicidal ratio of 90% or more (almost completely withered))
d: soybean, effect grade on crop (soybean; 192 g/ha): 0 (Herbicidal ratio of 5% or lower (almost no effect))
K: Lolium multiflorum Lam., herbicidal effect grade (Lolium multiflorum Lam.; 192 g/ha): 5 (Herbicidal ratio of 90% or more (almost completely withered))
G: Setaria viridis, herbicidal effect (criteria 0-5) (Setaria viridis; 192 g/ha): 5 (Herbicidal ratio of 90% or more (almost completely withered))
P: Stellaria media, herbicidal effect (criteria 0-5) (Stellaria media [4]; 192 g/ha): 3 (Herbicidal ratio of 40% or higher and lower than 70%)
R: Veronica persica, herbicidal effect (criteria 0-5) (Veronica persica [5]; 192 g/ha): 3 (Herbicidal ratio of 40% or higher and lower than 70%)
e: wheat, effect on crop (criteria 0-5) (wheat; 192 g/ha): 5 (Herbicidal ratio of 90% or more (almost completely withered))
F: Digitaria ciliaris, herbicidal effect (criteria 0-5) (Digitaria ciliaris [6]; 192 g/ha): 5 (Herbicidal ratio of 90% or more (almost completely withered))
H: Echinochloa crus-galli var. crus-galli, herbicidal effect grade ([7]; 192 g/ha): 5 (Herbicidal ratio of 90% or more (almost completely withered))
R: Veronica persica, herbicidal effect grade (Veronica persica [8]; 192 g/ha): 0 (Herbicidal ratio of 5% or lower (almost no effect))
M: Abutilon theophrasti, herbicidal effect (criteria 0-5) (Abutilon theophrasti; 192 g/ha): 4 (Herbicidal ratio of 70% or higher and lower than 90%)
Q: Galium spurium, herbicidal effect grade (Galium spurium; 192 g/ha): 0 (Herbicidal ratio of 5% or lower (almost no effect))
P: Stellaria media, herbicidal effect grade (Stellaria media [9]; 192 g/ha): 0 (Herbicidal ratio of 5% or lower (almost no effect))
f: beet, effect grade on crop (beet [10]; 192 g/ha): 0 (Herbicidal ratio of 5% or lower (almost no effect))
L: Apera spica-venti, herbicidal effect (criteria 0-5) (Apera spica-venti; 192 g/ha): 5 (Herbicidal ratio of 90% or more (almost completely withered))
b: directly sowed rice plant, effect grade on crop (rice; 192 g/ha): 5 (Herbicidal ratio of 90% or more (almost completely withered))
g: rapeseed, effect grade on crop (rapeseed; 192 g/ha): 4 (Herbicidal ratio of 70% or higher and lower than 90%)

CON=C(CC1CC(O)=C(c2c(C)cc(C)cc2C)C1=O)C(F)(F)F (stereo not drawn) [1-097]
c: corn, effect grade on crop (corn; 320 g/ha): 1 (Herbicidal ratio of 5% or higher and lower than 20%)
b: directly sowed rice plant, effect on crop (criteria 0-5) (rice plant; 320 g/ha): 5 (Herbicidal ratio of 90% or more (almost completely withered))
J: Alopecurus myosuroides, herbicidal effect grade (Alopecurus myosuroides; 320 g/ha): 2 (Herbicidal ratio of 20% or higher and lower than 40%)
I: Avena fatua, herbicidal effect (criteria 0-5) (Avena fatua; 320 g/ha): 3 (Herbicidal ratio of 40% or higher and lower than 70%)
F: Digitaria ciliaris, herbicidal effect grade (Digitaria ciliaris [3]; 320 g/ha): 0 (Herbicidal ratio of 5% or lower (almost no effect))
d: soybean, effect grade on crop (soybean; 320 g/ha): 0 (Herbicidal ratio of 5% or lower (almost no effect))
K: Lolium multiflorum Lam., herbicidal effect grade (Lolium multiflorum Lam.; 320 g/ha): 2 (Herbicidal ratio of 20% or higher and lower than 40%)
G: Setaria viridis, herbicidal effect (criteria 0-5) (Setaria viridis; 320 g/ha): 5 (Herbicidal ratio of 90% or more (almost completely withered))
P: Stellaria media, herbicidal effect (criteria 0-5) (Stellaria media [4]; 320 g/ha): 0 (Herbicidal ratio of 5% or lower (almost no effect))
O: Chenopodium album, herbicidal effect (criteria 0-5) (Chenopodium album): 1 (Herbicidal ratio of 5% or higher and lower than 20%)
R: Veronica persica, herbicidal effect (criteria 0-5) (Veronica persica [5]; 320 g/ha): 3 (Herbicidal ratio of 40% or higher and lower than 70%)
e: wheat, effect on crop (criteria 0-5) (wheat; 320 g/ha): 2 (Herbicidal ratio of 20% or higher and lower than 40%)
F: Digitaria ciliaris, herbicidal effect (criteria 0-5) (Digitaria ciliaris [6]; 320 g/ha): 5 (Herbicidal ratio of 90% or more (almost completely withered))
H: Echinochloa crus-galli var. crus-galli, herbicidal effect grade ([7]; 320 g/ha): 2 (Herbicidal ratio of 20% or higher and lower than 40%)
R: Veronica persica, herbicidal effect grade (Veronica persica [8]; 320 g/ha): 0 (Herbicidal ratio of 5% or lower (almost no effect))
M: Abutilon theophrasti, herbicidal effect (criteria 0-5) (Abutilon theophrasti; 320 g/ha): 3 (Herbicidal ratio of 40% or higher and lower than 70%)
Q: Galium spurium, herbicidal effect grade (Galium spurium; 320 g/ha): 0 (Herbicidal ratio of 5% or lower (almost no effect))
P: Stellaria media, herbicidal effect grade (Stellaria media [9]; 320 g/ha): 0 (Herbicidal ratio of 5% or lower (almost no effect))
f: beet, effect grade on crop (beet [10]; 320 g/ha): 0 (Herbicidal ratio of 5% or lower (almost no effect))
L: Apera spica-venti, herbicidal effect (criteria 0-5) (Apera spica-venti; 320 g/ha): 4 (Herbicidal ratio of 70% or higher and lower than 90%)
b: directly sowed rice plant, effect grade on crop (rice; 320 g/ha): 2 (Herbicidal ratio of 20% or higher and lower than 40%)
g: rapeseed, effect grade on crop (rapeseed; 320 g/ha): 3 (Herbicidal ratio of 40% or higher and lower than 70%)
